Laboratory results taken from patent publication US20210379078A1, “Killing Senescent Cells And Treating Senescence-Associated Conditions Using A Bcl Inhibitor And An Mcl-1 Inhibitor” (Unity Biotechnology, Inc., priority 2018, published 2021).
One block for each molecule: values may come before it.

Assays:
BIM-Bcl-xL interactions = target: T1, BIM-Bcl-xL interactions (Mus musculus, UniProt Q64373); assay: Target engagement co-immunoprecipitation with anti-BIM, western blot for Bcl-xL; type: cell-based
T1 construct: Lysates for co-IP experiments were prepared from: (a) lungs from mice; endogenous in cells; host or cells: mouse lung tissue (oral aspiration dosing) and mouse bronchiotracheal epithelial (MBE) cells
T1 sequence (Q64373 whole entry): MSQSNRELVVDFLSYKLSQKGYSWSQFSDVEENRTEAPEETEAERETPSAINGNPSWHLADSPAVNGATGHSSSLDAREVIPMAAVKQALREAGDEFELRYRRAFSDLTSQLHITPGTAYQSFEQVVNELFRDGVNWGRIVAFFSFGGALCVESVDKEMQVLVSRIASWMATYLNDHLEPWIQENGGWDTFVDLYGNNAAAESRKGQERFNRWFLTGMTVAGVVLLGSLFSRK
Experimental: Immunoprecipitations were performed using rabbit monoclonal anti-BIM (C34C5) antibodies (Cell Signaling Technology®) bound by Protein A-coated magnetic beads (Life Technologies®). 100 ul lysate was incubated with 10 μL of magnetic beads (pre-coated with 2 μg of antibody) for 1 hour at 4° C. in a Thermal Mixer at 1300 rpm (VWR®). After immunocapture, samples were washed three times with cold lysis buffer and eluted from the beads using non-reducing NuPAGE LDS Sample Buffer® (Life Technologies®). […]

Mcl-1 binding to BIM = assay: Target engagement co-immunoprecipitation with anti-BIM, western blot for Mcl-1; type: cell-based; details: OA-dosed mouse lungs (8 hours) and MBE cells (4 hours)
Text: A target engagement assay was developed to determine Bcl-xL and Mcl-1's respective interaction with BIM both in vivo in mice, or cells in culture, in order to predict senolysis. The respective binding pockets of Bcl-xL and Mcl-1 proteins under normal conditions sequestrate pro-apoptotic proteins, such as BIM. Co-immunoprecipitation (co-IP) was employed to study protein-protein interactions in order to determine if candidate senolytics can effectively displace Bcl-xL or Mcl-1 from BIM protein.
Lysates for co-IP experiments were prepared from: (a) lungs from mice that had been dosed for 8 hours by oral aspiration (OA) with either a candidate senolytic Bcl (Compound 1) or Mcl-1 inhibitor (S-63845), or a control vehicle treatment; or (b) mouse bronchiotrachael epithelial (MBE) cells, dosed for 4 hours with the same Bcl or Mcl-1 inhibitor, using a non-denaturing lysis buffer: PBS pH 7.4, 2% CHAPS, supplemented with a protease inhibitor cocktail (Roche®)). For every 0.25 gram of tissue 1 mL of lysis buffer was added to the sample, and next tissue was homogenized using a Precellys 24 (Bertin Technologies®; 3 cycles of 20 s and 20 s pause). Homogenates were cleared by centrifugation at 13000 g at 4° C. for 10 min, and the supernatant lysate was transferred to new tubes, aliquoted, flash-frozen using liquid nitrogen, and stored at −80° C. […]

[1] = cited from earlier work

BIM-Bcl-xL interactions (co-IP) (BIM-Bcl-xL interactions; OA-dosed mouse lungs (8 hours) and MBE cells (4 hours)): blocked
Compound: Cc1c(C(=O)O)c(-c2cccc(N3CCN(c4ccc(NS(=O)(=O)c5ccc(N[C@H](CCN6CCC(OP(=O)(O)O)CC6)CSc6ccccc6)c(S(=O)(=O)C(F)(F)F)c5)cc4)CC3)c2)c(-c2ccc(Cl)cc2)n1C(C)C [Compound 1]
Mcl-1 binding to BIM (co-IP) (Mcl-1 binding to BIM): compensatory Mcl-1 binding to BIM was observed

Compound: Cc1c(-c2c(-c3ccc(F)o3)sc3ncnc(O[C@H](Cc4ccccc4OCc4ccnn4CC(F)(F)F)C(=O)O)c23)ccc(OCCN2CCN(C)CC2)c1Cl [Compound S-63845]
Bcl-xL binding to BIM when Mcl-1 is inhibited (co-IP) (BIM-Bcl-xL interactions; S-63845 at 1 uM and 10 uM): Bcl-xL appeared to compensate for BIM binding

Compound: CN(C)CC[C@H](CSc1ccccc1)Nc1ccc(S(=O)(=O)NC(=O)c2ccc(N3CCN(Cc4ccccc4-c4ccc(Cl)cc4)CC3)cc2)cc1[N+](=O)[O-] [ABT-737]
dose-limiting toxicity in human patients [1]: dose-limiting thrombocytopenia
